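48-hour exposure; five concentrations; linearly interpolated endpoints. GI50: concentration for 50% inhibition of growth.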 Activity calls are given as the source filed them. Cut-off read from the data, not from the text of the source: active = GI50 up to about 1.1 µM and inactive = higher.
Columns and labels:
Test in all cases: NCI tumour cell line growth inhibition, 48 h
[1] = tested on: RPMI-8226
[2] = tested on: BT-549
[3] = tested on: OVCAR-3
[4] = tested on: PC-3
[5] = tested on: RXF 393
[6] = tested on: UO-31
[7] = tested on: SNB-19
[8] = tested on: MDA-MB-435
[9] = tested on: HCC 2998
[10] = tested on: HOP-92
[11] = tested on: NCI/ADR-RES
[12] = tested on: SF-539
[13] = tested on: KM12
[14] = tested on: U-251
[15] = tested on: SN12C
[16] = tested on: CCRF-CEM
[17] = tested on: SK-MEL-28
[18] = tested on: K562
[19] = tested on: DU-145
[20] = tested on: HOP-62
[21] = tested on: HCT-15
[22] = tested on: OVCAR-8
[23] = tested on: SK-MEL-5
[24] = tested on: ACHN
[25] = tested on: EKVX
[26] = tested on: Malme-3M
[27] = tested on: SR
[28] = tested on: 786-0
[29] = tested on: HL-60
[30] = tested on: SK-OV-3
[31] = tested on: COLO 205
[32] = tested on: M14
[33] = tested on: NCI-H460
[34] = tested on: HT-29
[35] = tested on: HCT-116
[36] = tested on: LOX IMVI
[37] = tested on: MCF7
[38] = tested on: IGROV-1
[39] = tested on: SK-MEL-2
[40] = tested on: SF-295
[41] = tested on: CAKI-1
[42] = tested on: NCI-H522
[43] = tested on: OVCAR-4
[44] = tested on: NCI-H226
[45] = tested on: TK-10
[46] = tested on: A498
[47] = tested on: Hs-578T
[48] = tested on: MDA-N
[49] = tested on: T47D
[50] = tested on: UACC-62
[51] = tested on: MOLT-4
[52] = tested on: NCI-H23
[53] = tested on: SF-268
[54] = tested on: UACC-257
[55] = tested on: SNB-75
[56] = tested on: A549
[57] = tested on: SW-620
[58] = tested on: MDA-MB-231

Measured: GI50

O=[N+]([O-])c1ccc(C2=NOC(c3ccc(Cl)cc3)N2C23CC4CC(CC(C4)C2)C3)cc1 (stereo not drawn)
inactive: [1] 15.5 µM | [2] > 100 µM | [3] > 100 µM | [4] > 100 µM | [5] 1.86 µM | [6] > 100 µM | [7] > 100 µM | [8] > 100 µM | [9] 64.1 µM | [10] 25.5 µM | [11] > 100 µM | [12] > 100 µM | [13] > 100 µM | [14] > 100 µM | [15] > 100 µM | [16] > 100 µM | [17] > 100 µM | [18] > 100 µM | [19] > 100 µM | [20] > 100 µM | [22] > 100 µM | [23] 53 µM | [24] 9.71 µM | [25] > 100 µM | [26] > 100 µM | [27] 67.9 µM | [28] > 100 µM | [29] 6.46 µM | [30] > 100 µM | [31] > 100 µM | [32] > 100 µM | [33] > 100 µM | [34] > 100 µM | [35] 28.1 µM | [36] > 100 µM | [37] 40.6 µM | [38] > 100 µM | [39] 20.2 µM | [40] > 100 µM | [41] 16.6 µM | [42] > 100 µM | [43] > 100 µM | [44] 64.9 µM | [45] > 100 µM | [46] > 100 µM | [47] 34.9 µM | [48] > 100 µM | [49] 35.2 µM | [50] > 100 µM | [51] 33.3 µM | [52] > 100 µM | [53] > 100 µM | [54] > 100 µM | [55] > 100 µM | [56] 56.9 µM | [57] > 100 µM | [58] > 100 µM
97.1 µM: [21]
